Measured values published in patent publication US5324747A, “N-substituted anilines, inhibitors of phospholipases A2” (Hoffmann-La Roche Inc., priority 1992, dated 1994).

Biological target: T1, HSF-PLA2 (Homo sapiens, UniProt P14555)
T1 construct: extracellular enzyme obtained from human synovial fluid (HSF-PLA2); from tissue; host or cells: pooled human synovial fluid, added at 0.1% (v/v)
T1 sequence (P14555 21-144): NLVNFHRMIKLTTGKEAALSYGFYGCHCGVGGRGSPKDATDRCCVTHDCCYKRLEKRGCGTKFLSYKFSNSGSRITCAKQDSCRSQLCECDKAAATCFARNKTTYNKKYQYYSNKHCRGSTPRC
Experiment: Assay for Inhibition of HSF-PLA2 In Vitro
Type: biochemical
Conditions: for IC50: read-out: Inhib of HSF-PLA2 IC50
Protocol: Assay for Inhibition of HSF-PLA2 In Vitro
The PLA2 used in this test is the extracellular enzyme obtained from human synovial fluid (HSF-PLA2).
The optimal conditions which were developed for the assay of HSF-PLA2 inhibitors are summarized as follows. […] The reaction was initiated by the addition of HSF-PLA2 and duplicate samples of the mixture were incubated in 13×100 mm glass tubes with shaking for 30 minutes at 37° C. […] The extraction of lipids from the stopped reaction mixture was conducted by the further additions of […] of chloroform and 1 ml of water with mixing. After centrifuging, the lower chloroform phase was transferred to smaller glass tubes and the solvent was evaporated to dryness with a nitrogen stream. The extracted lipid residue was redissolved in 50 μl of a solution containing carrier oleic acid (0.2 mg/ml) of chloroform-methanol [9 to 1, v/v]). The whole lipid extract was applied to a preactivated (30 minutes at 110° C.) silica gel-impregnated glass fiber thin layer chromatography sheet (ITLC type SG sheet from Gelman Sciences, Inc., Ann Arbor, Mich.) using hexane-acetic acid (100 to 1, v/v) as the developing solvent. This TLC system rapidly (6 minutes) resolved the enzymatically released product, ^14 C-oleic acid, from the unreacted ^14 C-phospholipid substrate. The unsaturated lipids were located on the chromatogram by a brief exposure to iodine vapor. […] A control incubation of substrate in the absence of HSF-PLA2 was performed in each experiment.

[1] = read-out: Inhib of HSF-PLA2, % inhibition

Compound	IC50 [nM]	other results
CCCCCCCCCCCCCCCCCCNC(=O)c1cc(C(=O)NCCCCCCCCCCCCCCCCCC)cc(N(CC(=O)O)CC(=O)O)c1 [Example 6r, N-(carboxymethyl)-N-[3,5-bis[(octadecylamino)carbonyl]phenyl]glycine]	640	–
CCCCCCCCC(O)COc1cc(NCC(=O)O)cc(OCC(O)CCCCCCCC)c1 (stereo not drawn) [127 d]	3500	–
CCCCCCCCCCCCCCCCCCCc1cc(CCCCCCCCCCCCCCCCCCC)cc(N(CC(=O)O)CC(=O)O)c1 [Example 6t, N-(carboxymethyl)-N-(3,5-dinonadecylphenyl)glycine]	–	inhibition at 10 µM [1]: 39%
CCCCCCCCCCNC(=O)c1cccc(N(CC(=O)O)CC(=O)O)c1 [Example 36d, N-(carboxymethyl)-N-[[(decylamino)carbonyl]phenyl]glycine]	–	inhibition at 10 µM [1]: 46%
CCCCCCCCCCCCCCc1ccc(N(CC(=O)O)CC(=O)O)cc1 [Example 39, N-(carboxymethyl)-N-(4-tetradecylphenyl)glycine]	–	inhibition at 1 µM [1]: 67%
O=C(O)CN(CC(=O)O)c1cccc(OCCOc2ccc3ccccc3c2)c1 [Example 36g, N-(carboxymethyl)-N-[(3-(2-naphthalenyloxy)ethoxy]phenyl]glycine]	–	inhibition at 10 µM [1]: 19%
O=C(O)CN(CC(=O)O)c1cc(OCCOc2ccc3ccccc3c2)cc(OCCOc2ccc3ccccc3c2)c1 [Example 6o, N-(carboxymethyl)-N-[3,5-bis[2-[2-naphthalenyloxy)]ethoxy]glycine]	600	–
CCCCCCCCCCOc1ccc(N(CC(=O)O)CC(=O)O)cc1OCCCCCCCCCC [Example 119a, N-(carboxymethyl)-N-[3,4-bis(decyloxy)phenyl]glycine]	160	–
CCCCCCCCCCc1cc(CCCCCCCCCC)cc(N(CC(=O)O)CC(=O)O)c1 [Example 29, N-(Carboxymethyl)-N-(3,5-didecylphenyl) glycine]	1500	–
CCCCCCCCCCCCCCCCCCOc1cc(OCCCCCCCCCCCCCCCCCC)cc(N(CC(=O)O)CC(=O)O)c1 [Example 6f, N-(carboxymethyl)-N-[3,5-bis(octadecyloxy)phenyl]glycine]	500	–
CCCCCCCCCCCCCCCCCCOc1cc(OC(=O)C(c2ccccc2)c2ccccc2)cc(N(CC(=O)O)CC(=O)O)c1 [Example 58g]	100	–
O=C(O)CN(CC(=O)O)c1cccc(C(=O)NC23CC4CC(CC(C4)C2)C3)c1 [Example 36h, N-(carboxymethyl)-N-[3-[(tricyclo[3.3.1.1/3,7/]dec-1-ylamino)carbonyl]phenyl]glycine]	–	inhibition at 20 µM ((20 μM), read-out: Inhib of HSF-PLA2, % inhibition): 25%
CCCCCCCCCCCCCCOc1cc(NCC(=O)O)cc(OCCCCCCCCCCCCCC)c1 [Example 127c, N-[3,5-bis(tetradecyloxy)phenyl]glycine]	–	inhibition at 10 µM [1]: 73%
CCCCCCCCCCCCCCCCCCOc1cc(OCCCCCCCCCCC(=O)O)cc(N(CC(=O)O)CC(=O)O)c1 [Example 58e]	200	–
CCCCCCCC/C=C\CCCCCCCCOc1cccc(N(CC(=O)O)CC(=O)O)c1 [Example 49]	300	–
CCCCCCCCCCCCCCCCCCOc1cc(OCCCCCCCCCCC(=O)OC)cc(N(CC(=O)O)CC(=O)O)c1 [Example 58d, N-(carboxymethyl)-N-[3-(11-methoxy-11-oxoundecyloxy)-5-(octadecyloxy)phenyl]glycine]	80	–
CCCCCCCCCC(=O)Nc1cc(NC(=O)CCCCCCCCC)cc(N(CC(=O)O)CC(=O)O)c1 [Example 21]	3800	–
O=C(O)CN(CC(=O)O)c1cc(C(=O)NC23CC4CC(CC(C4)C2)C3)cc(C(=O)NC23CC4CC(CC(C4)C2)C3)c1 [Example 6s]	–	inhibition at 10 µM [1]: 30%
CCCCCCCCCCCCCCCCCCCc1cccc(N(CC(=O)O)CC(=O)O)c1 [Example 36f, N-(carboxymethyl)-N-(3-nonadecylphenyl)glycine]	200	–
CCCCCCCCCCc1ccc(N(CC(=O)O)CC(=O)O)cc1 [Example 39d, N-(carboxymethyl)-N-(4-decylphenyl)glycine]	–	inhibition at 1 µM [1]: 39%
CCCCCCCCCC(=O)Oc1cc(OC(=O)CCCCCCCCC)cc(N(CC(=O)O)CC(=O)O)c1 [Example 6u, N-(carboxymethyl)-N-[3,5-bis[(1-oxodecyl)oxy]phenyl]glycine]	–	inhibition at 1 µM [1]: 64%
